Bridge positions count the residues as written; N and C are the ends. Square brackets hold non-standard residues; d marks the D form. Peptide text beside a SMILES is read from it. * marks the point of attachment. Phe(4-COOH) = N[C@@H](Cc1ccc(C(=O)O)cc1)C(=O)O; Bip = N[C@@H](Cc1ccc(-c2ccccc2)cc1)C(=O)O; Phe(3-Me) = Cc1cccc(C[C@H](N)C(=O)O)c1; Cha = N[C@@H](CC1CCCCC1)C(=O)O; Carboxymethyl = O=C(O)C*; Orn = NCCC[C@H](N)C(=O)O; Aun = NCCCCCCCCCCC(=O)O; Dab = NCC[C@H](N)C(=O)O; Dap = NC[C@H](N)C(=O)O; AEEA = NCCOCCOCC(=O)O
Molecular target: T1, PD-1/PD-L1 interaction (PE-labeled human PD-L1-Ig binding to Jurkat cell line over-expressing human PD-1) (Homo sapiens, UniProt Q15116)
T1 construct: expressed in transfected cells; host or cells: Jurkat
T1 sequence (Q15116 25-288): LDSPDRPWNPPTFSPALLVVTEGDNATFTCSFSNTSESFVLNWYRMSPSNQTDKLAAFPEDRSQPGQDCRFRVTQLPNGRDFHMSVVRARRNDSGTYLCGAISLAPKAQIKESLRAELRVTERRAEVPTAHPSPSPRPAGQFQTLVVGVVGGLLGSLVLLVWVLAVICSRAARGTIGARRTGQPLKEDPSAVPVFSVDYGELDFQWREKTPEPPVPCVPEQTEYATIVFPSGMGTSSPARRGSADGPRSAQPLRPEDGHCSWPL
Experiment: Jurkat-PD-1 Cell Binding High-Content Screening Assay (CBA)
Format: cell-based
Settings: Jurkat cell line over-expressing human PD-1; PE-labeled PD-L1-Ig 20 nM final; read-out: Jurkat hPD1-PDL1 IC50
Outline: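 Binding of fluorescent PD-L1-Ig (phycoerythrin on Ig tag, 20 nM final, 1 h) measured by high-content imaging of fixed, Hoechst-counterstained Jurkat-hPD-1 cells. Compound added 2 h at 37° C beforehand, in DMEM with 10% fetal calf serum.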

SMILES	IC50
CC(C)C[C@H]1NC(=O)[C@H](CCCN)NC(=O)[C@H](C(C)C)NC(=O)[C@H](Cc2ccc(-c3ccccc3)cc2)NC(=O)[C@H](C(C)C)NC(=O)[C@H](Cc2c[nH]c3ccccc23)NC(=O)[C@H](CC(=O)O)NC(=O)[C@H](Cc2ccc(OCC(=O)O)cc2)NC(=O)[C@H](Cc2ccc(OCC(=O)O)cc2)NC(=O)CSC[C@@H](C(=O)NCCOCCOCC(=O)N[C@@H](CCN)C(=O)NCCCCCCCCCCC(=O)O)NC(=O)[C@H](CCCNC(=N)N)NC(=O)[C@H](C(C)C)NC(=O)[C@H](CC2CCCCC2)NC(=O)[C@H](CCN)NC1=O [Compound 2540] ({CH2CO}-Y(Carboxymethyl)Y(Carboxymethyl)DWV[Bip]V[Orn][dL][Dab][Cha]VRC[AEEA][Dab][Aun]-OH; thioether N-14)	7 nM
CC(C)C[C@H]1NC(=O)[C@H](CCCN)NC(=O)[C@H](C(C)C)NC(=O)[C@H](Cc2ccc(-c3ccccc3)cc2)NC(=O)[C@H](C(C)C)NC(=O)[C@H](Cc2c[nH]c3ccccc23)NC(=O)[C@H](CC(=O)O)NC(=O)[C@H](Cc2ccc(OCC(=O)O)cc2)NC(=O)[C@H](CN)NC(=O)CSC[C@@H](C(=O)NCCOCCOCC(=O)N[C@@H](CCN)C(=O)NCCCCCCCCCCC(=O)O)NC(=O)[C@H](CCCCN)NC(=O)[C@H](C(C)C)NC(=O)[C@H](CC2CCCCC2)NC(=O)[C@H](CCN)NC1=O [Compound 2541] ({CH2CO}-[Dap]Y(Carboxymethyl)DWV[Bip]V[Orn][dL][Dab][Cha]VKC[AEEA][Dab][Aun]-OH; thioether N-14)	7.6 nM
Cc1cccc(C[C@@H]2NC(=O)[C@H](CC(=O)O)NC(=O)[C@H](Cc3ccc(OCC(=O)O)cc3)NC(=O)[C@H](CN)NC(=O)CSC[C@@H](C(=O)NCCOCCOCC(=O)N[C@@H](CCN)C(=O)NCCCCCCCCCCC(=O)O)NC(=O)[C@H](CN)NC(=O)[C@H](C(C)C)NC(=O)[C@H](CC3CCCCC3)NC(=O)[C@H](CCN)NC(=O)[C@@H](CC(C)C)NC(=O)[C@H](CCCN)NC(=O)[C@H](C(C)C)NC(=O)[C@H](Cc3ccc(-c4ccccc4)cc3)NC(=O)[C@H](C(C)C)NC2=O)c1 [Compound 2542] ({CH2CO}-[Dap]Y(Carboxymethyl)D[Phe(3-Me)]V[Bip]V[Orn][dL][Dab][Cha]V[Dap]C[AEEA][Dab][Aun]-OH; thioether N-14)	4.9 nM
Cc1cccc(C[C@@H]2NC(=O)[C@H](CC(=O)O)NC(=O)[C@H](Cc3ccc(OCC(=O)O)cc3)NC(=O)[C@H](CN)NC(=O)CSC[C@@H](C(=O)NCCOCCOCC(=O)N[C@@H](CCN)C(=O)NCCCCCCCCCCC(=O)O)NC(=O)[C@H](CCCN)NC(=O)[C@H](C(C)C)NC(=O)[C@H](CC3CCCCC3)NC(=O)[C@H](CCN)NC(=O)[C@@H](CC(C)C)NC(=O)[C@H](CCCN)NC(=O)[C@H](C(C)C)NC(=O)[C@H](Cc3ccc(-c4ccccc4)cc3)NC(=O)[C@H](C(C)C)NC2=O)c1 [Compound 2543] ({CH2CO}-[Dap]Y(Carboxymethyl)D[Phe(3-Me)]V[Bip]V[Orn][dL][Dab][Cha]V[Orn]C[AEEA][Dab][Aun]-OH; thioether N-14)	9.5 nM
Cc1cccc(C[C@@H]2NC(=O)[C@H](CC(=O)O)NC(=O)[C@H](Cc3ccc(OCC(=O)O)cc3)NC(=O)[C@H](CN)NC(=O)CSC[C@@H](C(=O)NCCOCCOCC(=O)N[C@@H](CCN)C(=O)NCCCCCCCCCCC(=O)O)NC(=O)[C@H](CCCNC(=N)N)NC(=O)[C@H](C(C)C)NC(=O)[C@H](CC3CCCCC3)NC(=O)[C@H](CCN)NC(=O)[C@@H](CC(C)C)NC(=O)[C@H](CCCN)NC(=O)[C@H](C(C)C)NC(=O)[C@H](Cc3ccc(-c4ccccc4)cc3)NC(=O)[C@H](C(C)C)NC2=O)c1 [Compound 2544] ({CH2CO}-[Dap]Y(Carboxymethyl)D[Phe(3-Me)]V[Bip]V[Orn][dL][Dab][Cha]VRC[AEEA][Dab][Aun]-OH; thioether N-14)	10.7 nM
CC(C)C[C@H]1NC(=O)[C@H](CCCN)NC(=O)[C@H](C(C)C)NC(=O)[C@H](Cc2ccc(-c3ccccc3)cc2)NC(=O)[C@H](C(C)C)NC(=O)[C@H](Cc2c[nH]c3ccccc23)NC(=O)[C@H](CC(=O)O)NC(=O)[C@H](Cc2ccc(OCC(=O)O)cc2)NC(=O)[C@H](Cc2ccc(OCC(=O)O)cc2)NC(=O)CSC[C@@H](C(=O)NCCOCCOCC(=O)N[C@@H](CCN)C(=O)NCCCCCCCCCCC(=O)O)NC(=O)[C@H](CCCN)NC(=O)[C@H](C(C)C)NC(=O)[C@H](CC2CCCCC2)NC(=O)[C@H](CCN)NC1=O [Compound 2545] ({CH2CO}-Y(Carboxymethyl)Y(Carboxymethyl)DWV[Bip]V[Orn][dL][Dab][Cha]V[Orn]C[AEEA][Dab][Aun]-OH; thioether N-14)	7.4 nM
CC(C)C[C@H]1NC(=O)[C@H](CCCN)NC(=O)[C@H](C(C)C)NC(=O)[C@H](Cc2ccc(-c3ccccc3)cc2)NC(=O)[C@H](C(C)C)NC(=O)[C@H](Cc2c[nH]c3ccccc23)NC(=O)[C@H](CC(=O)O)NC(=O)[C@H](Cc2ccc(OCC(=O)O)cc2)NC(=O)[C@H](Cc2ccc(OCC(=O)O)cc2)NC(=O)CSC[C@@H](C(=O)NCCOCCOCC(=O)N[C@@H](CCN)C(=O)NCCCCCCCCCCC(=O)O)NC(=O)[C@H](CN)NC(=O)[C@H](C(C)C)NC(=O)[C@H](CC2CCCCC2)NC(=O)[C@H](CCN)NC1=O [Compound 2546] ({CH2CO}-Y(Carboxymethyl)Y(Carboxymethyl)DWV[Bip]V[Orn][dL][Dab][Cha]V[Dap]C[AEEA][Dab][Aun]-OH; thioether N-14)	13.3 nM
CC(C)C[C@H]1NC(=O)[C@H](CCCN)NC(=O)[C@H](C(C)C)NC(=O)[C@H](Cc2ccc(-c3ccccc3)cc2)NC(=O)[C@H](C(C)C)NC(=O)[C@H](Cc2c[nH]c3ccccc23)NC(=O)[C@H](CC(=O)O)NC(=O)[C@H](Cc2ccc(C(=O)O)cc2)NC(=O)[C@H](Cc2ccc(OCC(=O)O)cc2)NC(=O)CSC[C@@H](C(=O)N[C@@H](CCN)C(=O)NCCOCCOCC(=O)NCCCCCCCCCCC(=O)O)NC(=O)[C@H](CCCCN)NC(=O)[C@H](C(C)C)NC(=O)[C@H](CC2CCCCC2)NC(=O)[C@H](CCN)NC1=O [Compound 2547] ({CH2CO}-Y(Carboxymethyl)[Phe(4-COOH)]DWV[Bip]V[Orn][dL][Dab][Cha]VKC[Dab][AEEA][Aun]-OH; thioether N-14)	31.9 nM
CC(C)C[C@H]1NC(=O)[C@H](CCCN)NC(=O)[C@H](C(C)C)NC(=O)[C@H](Cc2ccc(-c3ccccc3)cc2)NC(=O)[C@H](C(C)C)NC(=O)[C@H](Cc2c[nH]c3ccccc23)NC(=O)[C@H](CC(=O)O)NC(=O)[C@H](Cc2ccc(OCC(=O)O)cc2)NC(=O)[C@H](Cc2ccc(OCC(=O)O)cc2)NC(=O)CSC[C@@H](C(=O)N[C@@H](CCN)C(=O)NCCOCCOCC(=O)NCCCCCCCCCCC(=O)O)NC(=O)[C@H](CCCNC(=N)N)NC(=O)[C@H](C(C)C)NC(=O)[C@H](CC2CCCCC2)NC(=O)[C@H](CCN)NC1=O [Compound 2548] ({CH2CO}-Y(Carboxymethyl)Y(Carboxymethyl)DWV[Bip]V[Orn][dL][Dab][Cha]VRC[Dab][AEEA][Aun]-OH; thioether N-14)	11.6 nM
CC(C)C[C@H]1NC(=O)[C@H](CCCN)NC(=O)[C@H](C(C)C)NC(=O)[C@H](Cc2ccc(-c3ccccc3)cc2)NC(=O)[C@H](C(C)C)NC(=O)[C@H](Cc2c[nH]c3ccccc23)NC(=O)[C@H](CC(=O)O)NC(=O)[C@H](Cc2ccc(OCC(=O)O)cc2)NC(=O)[C@H](CN)NC(=O)CSC[C@@H](C(=O)N[C@@H](CCN)C(=O)NCCOCCOCC(=O)NCCCCCCCCCCC(=O)O)NC(=O)[C@H](CCCCN)NC(=O)[C@H](C(C)C)NC(=O)[C@H](CC2CCCCC2)NC(=O)[C@H](CCN)NC1=O [Compound 2549] ({CH2CO}-[Dap]Y(Carboxymethyl)DWV[Bip]V[Orn][dL][Dab][Cha]VKC[Dab][AEEA][Aun]-OH; thioether N-14)	9.4 nM
Cc1cccc(C[C@@H]2NC(=O)[C@H](CC(=O)O)NC(=O)[C@H](Cc3ccc(OCC(=O)O)cc3)NC(=O)[C@H](CN)NC(=O)CSC[C@@H](C(=O)N[C@@H](CCN)C(=O)NCCOCCOCC(=O)NCCCCCCCCCCC(=O)O)NC(=O)[C@H](CN)NC(=O)[C@H](C(C)C)NC(=O)[C@H](CC3CCCCC3)NC(=O)[C@H](CCN)NC(=O)[C@@H](CC(C)C)NC(=O)[C@H](CCCN)NC(=O)[C@H](C(C)C)NC(=O)[C@H](Cc3ccc(-c4ccccc4)cc3)NC(=O)[C@H](C(C)C)NC2=O)c1 [Compound 2550] ({CH2CO}-[Dap]Y(Carboxymethyl)D[Phe(3-Me)]V[Bip]V[Orn][dL][Dab][Cha]V[Dap]C[Dab][AEEA][Aun]-OH; thioether N-14)	8 nM
Cc1cccc(C[C@@H]2NC(=O)[C@H](CC(=O)O)NC(=O)[C@H](Cc3ccc(OCC(=O)O)cc3)NC(=O)[C@H](CN)NC(=O)CSC[C@@H](C(=O)N[C@@H](CCN)C(=O)NCCOCCOCC(=O)NCCCCCCCCCCC(=O)O)NC(=O)[C@H](CCCN)NC(=O)[C@H](C(C)C)NC(=O)[C@H](CC3CCCCC3)NC(=O)[C@H](CCN)NC(=O)[C@@H](CC(C)C)NC(=O)[C@H](CCCN)NC(=O)[C@H](C(C)C)NC(=O)[C@H](Cc3ccc(-c4ccccc4)cc3)NC(=O)[C@H](C(C)C)NC2=O)c1 [Compound 2551] ({CH2CO}-[Dap]Y(Carboxymethyl)D[Phe(3-Me)]V[Bip]V[Orn][dL][Dab][Cha]V[Orn]C[Dab][AEEA][Aun]-OH; thioether N-14)	11.2 nM
Cc1cccc(C[C@@H]2NC(=O)[C@H](CC(=O)O)NC(=O)[C@H](Cc3ccc(OCC(=O)O)cc3)NC(=O)[C@H](CN)NC(=O)CSC[C@@H](C(=O)N[C@@H](CCN)C(=O)NCCOCCOCC(=O)NCCCCCCCCCCC(=O)O)NC(=O)[C@H](CCCNC(=N)N)NC(=O)[C@H](C(C)C)NC(=O)[C@H](CC3CCCCC3)NC(=O)[C@H](CCN)NC(=O)[C@@H](CC(C)C)NC(=O)[C@H](CCCN)NC(=O)[C@H](C(C)C)NC(=O)[C@H](Cc3ccc(-c4ccccc4)cc3)NC(=O)[C@H](C(C)C)NC2=O)c1 [Compound 2552] ({CH2CO}-[Dap]Y(Carboxymethyl)D[Phe(3-Me)]V[Bip]V[Orn][dL][Dab][Cha]VRC[Dab][AEEA][Aun]-OH; thioether N-14)	9.9 nM
